Reference: PMC5529524, “2-Oxoadenosine induces cytotoxicity through intracellular accumulation of 2-oxo-ATP and depletion of ATP but not via the p38 MAPK pathway” (Scientific Reports, 2017)

Experiments:
Format in all cases: biochemical
[1] = molecular target: T1, adenosine kinase (recombinant human ADK, rhADK) (Homo sapiens, UniProt P55263); assay: in vitro rhADK phosphorylation assay, HPLC of 2-oxo-AMP
[2] = molecular target: T1, adenosine kinase (recombinant human ADK, rhADK); assay: in vitro rhADK phosphorylation assay, HPLC of monophosphate product
[3] = molecular target: T1, adenosine kinase (recombinant human ADK, rhADK); assay: in vitro rhADK enzyme assay, HPLC of 2-oxo-AMP product (IC50 […] with Ado as substrate)

T1 sequence (P55263 2-362): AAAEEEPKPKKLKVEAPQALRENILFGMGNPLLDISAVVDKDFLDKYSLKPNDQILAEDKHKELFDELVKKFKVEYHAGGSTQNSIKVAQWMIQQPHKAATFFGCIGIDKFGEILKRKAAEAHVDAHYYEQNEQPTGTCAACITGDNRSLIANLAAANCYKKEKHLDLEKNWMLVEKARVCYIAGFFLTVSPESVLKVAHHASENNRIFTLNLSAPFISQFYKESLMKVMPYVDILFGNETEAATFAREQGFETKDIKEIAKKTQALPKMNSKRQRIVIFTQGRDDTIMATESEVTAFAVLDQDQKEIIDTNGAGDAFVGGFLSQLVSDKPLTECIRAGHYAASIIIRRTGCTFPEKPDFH

SMILES: Nc1[nH]c(=O)nc2c1ncn2[C@@H]1O[C@H](CO)[C@@H](O)[C@H]1O [2-oxoadenosine, 1,2-Dihydro-2-oxoadenosine]
- in vitro rhADK phosphorylation assay, HPLC of 2-oxo-AMP [1]: Recombinant human ADK, ATP and nucleosides 2-oxo-Ado (a) or Ado (b) were reacted

SMILES: Nc1nc(Cl)nc2c1ncn2[C@@H]1O[C@H](CO)[C@@H](O)[C@H]1O [2-chloroadenosine]
- in vitro rhADK phosphorylation assay, HPLC of monophosphate product [2]: Chromatograms of the reaction products of ADK with 2-Cl-Ado or AICAR showed novel peaks

SMILES: C[S+]([O-])c1ccc(-c2nc(-c3ccncc3)c(-c3ccc(F)cc3)[nH]2)cc1 (stereo not drawn) [SB203580]
- IC50 [3]: 8.6 µM
